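The compound was tested at five concentrations on cells cultured in 96-well plates, with a 48-hour exposure period. GI50 = concentration required for 50% inhibition of growth.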 Active and inactive are the calls of the source. Cut-off read from the data, not from the text of the source: active = GI50 up to about 1.1 µM and inactive = higher.
Columns and labels:
Experiment in all cases: DTP human tumour cell line panel, 48 h
SK-MEL-5 = tested on: SK-MEL-5
SF-539 = tested on: SF-539
SK-OV-3 = tested on: SK-OV-3
ACHN = tested on: ACHN
OVCAR-4 = tested on: OVCAR-4
U-251 = tested on: U-251
SNB-19 = tested on: SNB-19
SK-MEL-2 = tested on: SK-MEL-2
HOP-92 = tested on: HOP-92
M14 = tested on: M14
HCC 2998 = tested on: HCC 2998
A549 = tested on: A549
LOX IMVI = tested on: LOX IMVI
TK-10 = tested on: TK-10
UACC-62 = tested on: UACC-62
MOLT-4 = tested on: MOLT-4
UACC-257 = tested on: UACC-257

Measured: GI50

CC1(n2nc(-c3ccccc3)n(-c3ccccc3)c2=O)CSC1
inactive: SK-MEL-5 > 100 µM | SF-539 > 100 µM | SK-OV-3 > 100 µM | ACHN > 100 µM | OVCAR-4 > 100 µM | U-251 > 100 µM | SNB-19 > 100 µM | SK-MEL-2 > 100 µM | HOP-92 > 100 µM | M14 > 100 µM | HCC 2998 > 100 µM | A549 > 100 µM | LOX IMVI > 100 µM | TK-10 > 100 µM | UACC-62 > 100 µM | MOLT-4 > 100 µM | UACC-257 > 100 µM

Clc1ccc2c(Cl)nc(-c3ccccc3)nc2c1
inactive: SK-MEL-5 16.5 µM | SK-OV-3 14.1 µM | ACHN 20.9 µM | U-251 11.8 µM | SNB-19 35.6 µM | SK-MEL-2 26.4 µM | HCC 2998 34.8 µM | TK-10 46.1 µM | UACC-62 19.4 µM | MOLT-4 20.2 µM | UACC-257 26.2 µM

COc1cc(OC)c(C#N)c(OC)c1C
inactive: SK-MEL-5 > 100 µM | SF-539 > 100 µM | SK-OV-3 > 100 µM | ACHN > 100 µM | OVCAR-4 > 100 µM | U-251 > 100 µM | SNB-19 > 100 µM | SK-MEL-2 > 100 µM | HOP-92 > 100 µM | A549 > 100 µM | LOX IMVI > 100 µM | TK-10 > 100 µM | UACC-62 > 100 µM | MOLT-4 > 100 µM | UACC-257 > 100 µM

O=CC1CCCc2ccccc21 (configuration not stated)
inactive: SK-MEL-5 > 100 µM | SK-OV-3 > 100 µM | ACHN > 100 µM | OVCAR-4 > 100 µM | U-251 > 41.5 µM | SNB-19 > 100 µM | SK-MEL-2 > 100 µM | HOP-92 > 100 µM | M14 > 100 µM | HCC 2998 > 100 µM | A549 > 100 µM | LOX IMVI > 44.1 µM | TK-10 > 100 µM | UACC-62 > 100 µM | MOLT-4 > 100 µM | UACC-257 > 74.3 µM

CN(C)CCC(/C=C/c1ccccc1)=N\Nc1c(F)c(F)c(F)c(F)c1F
inactive: SK-MEL-5 15.5 µM | SF-539 > 100 µM | SK-OV-3 > 100 µM | ACHN 49.1 µM | OVCAR-4 > 100 µM | U-251 > 100 µM | SNB-19 > 100 µM | SK-MEL-2 41.6 µM | M14 44.1 µM | A549 72.6 µM | LOX IMVI > 100 µM | TK-10 > 100 µM | UACC-62 49.2 µM | MOLT-4 45.1 µM | UACC-257 26.4 µM

O=C1CCC(=O)c2cc(Br)ccc2N1
inactive: SK-MEL-5 > 100 µM | SF-539 > 100 µM | SK-OV-3 > 100 µM | ACHN > 100 µM | OVCAR-4 > 100 µM | U-251 99.3 µM | SNB-19 > 100 µM | SK-MEL-2 > 100 µM | HOP-92 > 100 µM | M14 > 100 µM | HCC 2998 > 100 µM | A549 98.6 µM | LOX IMVI > 96.6 µM | TK-10 > 100 µM | UACC-62 > 100 µM | MOLT-4 > 100 µM | UACC-257 > 100 µM

O=P(Nc1cccc(Cl)c1)(Oc1ccccc1)N(CCCl)CCCl (configuration not stated)
inactive: SK-MEL-5 12.4 µM | SF-539 16.7 µM | SK-OV-3 > 100 µM | ACHN 16.7 µM | OVCAR-4 11.7 µM | U-251 14.6 µM | SK-MEL-2 12.6 µM | HOP-92 11.9 µM | M14 15.2 µM | HCC 2998 14.8 µM | A549 13.2 µM | TK-10 13.7 µM | UACC-62 11.6 µM | MOLT-4 17.4 µM | UACC-257 14.1 µM

COc1ccc(C2C(Cl)C(=O)N2NC(=O)c2ccc(N)cc2)cc1 (configuration not stated)
inactive: SK-MEL-5 > 100 µM | SF-539 > 100 µM | SK-OV-3 > 100 µM | ACHN > 100 µM | OVCAR-4 > 100 µM | U-251 > 100 µM | SNB-19 > 100 µM | SK-MEL-2 > 100 µM | HOP-92 > 100 µM | M14 > 100 µM | HCC 2998 > 100 µM | A549 > 100 µM | LOX IMVI > 100 µM | TK-10 > 100 µM | UACC-62 > 100 µM | MOLT-4 > 100 µM | UACC-257 > 100 µM

Cc1ccc2c(c1CCCC(C)(C)O)C(=O)C(O)=C(C(C)C)C2=O
inactive: SK-MEL-5 > 100 µM | SF-539 > 100 µM | SK-OV-3 > 100 µM | ACHN 63 µM | OVCAR-4 > 100 µM | U-251 53.1 µM | SNB-19 > 100 µM | SK-MEL-2 36.7 µM | HOP-92 > 100 µM | M14 > 100 µM | HCC 2998 > 100 µM | A549 50.6 µM | TK-10 > 100 µM | MOLT-4 60.1 µM

Reference: ChEMBL document CHEMBL1201862, “PubChem BioAssay data set” (2004)
